In PubChem BioAssay (NCI):
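How tested: cells in 96-well plates exposed to compound for 48 hours at five concentrations. The concentration for full growth arrest is given as TGI.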

Experiments:
Experiment in all cases: inhibition of tumour cell growth, NCI panel, 48 h
MCF7 breast = system: MCF7 breast
NCI-H460 lung = system: NCI-H460 lung
HOP-62 NSCLC = system: HOP-62 NSCLC
K-562 leukemia = system: K-562 leukemia
SK-MEL-28 melanoma = system: SK-MEL-28 melanoma
OVCAR-8 ovarian = system: OVCAR-8 ovarian
M14 melanoma = system: M14 melanoma
LOX IMVI melanoma = system: LOX IMVI melanoma
COLO 205 colon = system: COLO 205 colon
UACC-62 melanoma = system: UACC-62 melanoma
786-0 renal = system: 786-0 renal
HOP-92 NSCLC = system: HOP-92 NSCLC
SK-OV-3 ovarian = system: SK-OV-3 ovarian
UO-31 renal = system: UO-31 renal
KM12 colon = system: KM12 colon
SNB-75 CNS = system: SNB-75 CNS
A549 NSCLC = system: A549 NSCLC
CAKI-1 renal = system: CAKI-1 renal
NCI-H226 lung = system: NCI-H226 lung
SNB-19 CNS = system: SNB-19 CNS
HCT-116 colon = system: HCT-116 colon
MDA-MB-435 = system: MDA-MB-435
SK-MEL-2 melanoma = system: SK-MEL-2 melanoma
PC-3 prostate = system: PC-3 prostate
IGROV1 ovarian = system: IGROV1 ovarian
SF-295 CNS = system: SF-295 CNS
OVCAR-5 ovarian = system: OVCAR-5 ovarian
SF-268 CNS = system: SF-268 CNS
HCC-2998 colon = system: HCC-2998 colon
NCI-H23 lung = system: NCI-H23 lung
OVCAR-4 ovarian = system: OVCAR-4 ovarian
MDA-N = system: MDA-N
HS 578T breast = system: HS 578T breast
UACC-257 melanoma = system: UACC-257 melanoma
TK-10 renal = system: TK-10 renal
OVCAR-3 ovarian = system: OVCAR-3 ovarian
EKVX NSCLC = system: EKVX NSCLC
NCI-H522 lung = system: NCI-H522 lung
HL-60(TB) leukemia = system: HL-60(TB) leukemia
DU-145 prostate = system: DU-145 prostate
ACHN renal = system: ACHN renal
SF-539 CNS = system: SF-539 CNS
SN12C renal = system: SN12C renal
HT29 colon = system: HT29 colon
T-47D breast = system: T-47D breast
NCI/ADR-RES ovarian = system: NCI/ADR-RES ovarian
SK-MEL-5 melanoma = system: SK-MEL-5 melanoma
U251 CNS = system: U251 CNS
A498 renal = system: A498 renal
MALME-3M melanoma = system: MALME-3M melanoma
HCT-15 colon = system: HCT-15 colon
SR leukemia = system: SR leukemia
BT-549 breast = system: BT-549 breast
SW-620 colon = system: SW-620 colon
MDA-MB-231 breast = system: MDA-MB-231 breast
CCRF-CEM leukemia = system: CCRF-CEM leukemia
RPMI-8226 leukemia = system: RPMI-8226 leukemia
MOLT-4 leukemia = system: MOLT-4 leukemia

Measured: TGI

CC(C)(C)C1=C(Br)C(C(C)(C)C)OP1(=O)O (stereo unspecified)
not listed: SR leukemia | BT-549 breast | SW-620 colon | MDA-MB-231 breast | CCRF-CEM leukemia | RPMI-8226 leukemia | MOLT-4 leukemia
> 100 µM: all other assays above

N#Cc1c(-c2ccc(Cl)cc2)c2c(n(C3OC(CO)C(O)C(O)C3O)c1=S)CCCC2 (stereo unspecified)
87.1 µM: MOLT-4 leukemia
80.3 µM: SK-MEL-5 melanoma
58.9 µM: HL-60(TB) leukemia
not listed: UACC-62 melanoma | SK-OV-3 ovarian | T-47D breast
> 100 µM: all other assays above
